Measured values reported in PubChem BioAssay AID256 (DTP/NCI, 2004).
“And” between values parts separate entries of the source, which are not always exact repeats. Equal values may be shown once. Inconclusive results and toxic doses are left out. Rule for the calls: active = survival T/C of 150% or more; inactive = T/C below 125% in these data.

System: CD2F1 mice, L1210 leukemia ip, survival T/C
Experiment: NCI In Vivo Anticancer Drug Screen. Data for tumor model L1210 Leukemia (intraperitoneal) in CD2F1 (CDF1) mice
Conditions: higher = longer survival
How it was run: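 Ratio T/C, where T is the treated-group value and C the vehicle-dosed control value, from mice implanted with a transplantable tumor.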

[1] = endpoint: mean survival time, dose: 12.5 mg/kg/injection, schedule: Q01DX009 (ip), vehicle: saline with Tween-80
[2] = endpoint: mean survival time, dose: 25.0 mg/kg/injection, schedule: Q01DX009 (ip), vehicle: saline with Tween-80
[3] = endpoint: mean survival time, dose: 100.0 mg/kg/injection, schedule: Q04DX003 (ip), vehicle: saline with Tween-80
[4] = endpoint: mean survival time, dose: 200.0 mg/kg/injection, schedule: Q04DX003 (ip), vehicle: saline with Tween-80
[5] = endpoint: mean survival time, dose: 400.0 mg/kg/injection, schedule: Q04DX003 (ip), vehicle: saline with Tween-80
[6] = endpoint: mean survival time, dose: 50.0 mg/kg/injection, schedule: Q01DX009 (ip), vehicle: saline with Tween-80
[7] = endpoint: mean survival time, dose: 100.0 mg/kg/injection, schedule: Q01DX009 (ip), vehicle: saline with Tween-80
[8] = endpoint: mean survival time, dose: 200.0 mg/kg/injection, schedule: Q01DX009 (ip), vehicle: saline with Tween-80
[9] = endpoint: mean survival time, dose: 100.0 mg/kg/injection, schedule: Q01DX001 (ip), vehicle: saline with Tween-80
[10] = endpoint: mean survival time, dose: 200.0 mg/kg/injection, schedule: Q01DX001 (ip), vehicle: saline with Tween-80
[11] = endpoint: mean survival time, dose: 400.0 mg/kg/injection, schedule: Q01DX001 (ip), vehicle: saline with Tween-80
[12] = endpoint: mean survival time, dose: 400.0 mg/kg/injection, schedule: Q01DX009 (ip), vehicle: saline with Tween-80
[13] = endpoint: mean survival time, dose: 100.0 mg/kg/injection, schedule: Q01DX001 (ip), vehicle: saline
[14] = endpoint: mean survival time, dose: 200.0 mg/kg/injection, schedule: Q01DX001 (ip), vehicle: saline
[15] = endpoint: mean survival time, dose: 400.0 mg/kg/injection, schedule: Q01DX001 (ip), vehicle: saline

Measured: T/C

C=C1C(=O)C23[C@H](O)C1CC[C@H]2[C@]12COC3(O)[C@@H](O)[C@@H]1C(C)(C)CC[C@@H]2O
inactive: endpoint: mean survival time, dose: 1.56 mg/kg/injection, schedule: Q01DX009 (ip), vehicle: saline with Tween-80 97 % of control and 111 % of control | endpoint: mean survival time, dose: 3.12 mg/kg/injection, schedule: Q01DX009 (ip), vehicle: saline with Tween-80 102 % of control and 103 % of control | endpoint: mean survival time, dose: 4.5 mg/kg/injection, schedule: Q01DX009 (ip), vehicle: Klucel (hydroxypropylcellulose) (HPC) 93 % of control and 105 % of control and 107 % of control | endpoint: mean survival time, dose: 6.25 mg/kg/injection, schedule: Q01DX009 (ip), vehicle: saline with Tween-80 96 % of control and 102 % of control | endpoint: mean survival time, dose: 9.0 mg/kg/injection, schedule: Q01DX009 (ip), vehicle: Klucel (hydroxypropylcellulose) (HPC) 95 % of control and 97 % of control | [1] 97 % of control and 105 % of control | endpoint: mean survival time, dose: 18.0 mg/kg/injection, schedule: Q01DX009 (ip), vehicle: Klucel (hydroxypropylcellulose) (HPC) 93 % of control and 101 % of control and 107 % of control | [2] 102 % of control and 105 % of control | endpoint: mean survival time, dose: 36.0 mg/kg/injection, schedule: Q01DX009 (ip), vehicle: Klucel (hydroxypropylcellulose) (HPC) 90 % of control and 107 % of control

CC(=O)OCC(OC(C)=O)C(OC(C)=O)C(OC(C)=O)C(S)S (configuration not stated)
inactive: [3] 103 % of control | [4] 109 % of control | [5] 101 % of control

O=c1oc(-c2cc([N+](=O)[O-])ccc2Cl)nc2ccccc12
inactive: [6] 95 % of control | [7] 90 % of control | [8] 95 % of control

C[n+]1csc2ccccc21
inactive: [9] 104 % of control | [7] 105 % of control | [3] 103 % of control | [10] 98 % of control | [8] 105 % of control | [4] 103 % of control | [11] 104 % of control | [12] 103 % of control | [5] 105 % of control

COc1cc[n+](CCc2c[nH]c3ccccc23)cc1
inactive: endpoint: mean survival time, dose: 12.5 mg/kg/injection, schedule: Q01DX009 (ip), vehicle: saline sonified 97 % of control | endpoint: mean survival time, dose: 12.5 mg/kg/injection, schedule: Q04DX003 (ip), vehicle: saline with Tween-80 97 % of control | endpoint: mean survival time, dose: 25.0 mg/kg/injection, schedule: Q01DX009 (ip), vehicle: saline sonified 98 % of control | endpoint: mean survival time, dose: 25.0 mg/kg/injection, schedule: Q04DX003 (ip), vehicle: saline with Tween-80 101 % of control | endpoint: mean survival time, dose: 50.0 mg/kg/injection, schedule: Q01DX009 (ip), vehicle: saline sonified 100 % of control | endpoint: mean survival time, dose: 50.0 mg/kg/injection, schedule: Q04DX003 (ip), vehicle: saline with Tween-80 104 % of control

CC1=C2C(=O)[C@H]3[C@@H](CC=C4C[C@@H](O)CC[C@@]43C)[C@@H]2CC[C@]12O[C@@H]1C[C@H](C)CN[C@H]1[C@H]2C
inactive: [1] 100 % of control | [2] 93 % of control | [6] 91 % of control | [10] 91 % of control | [11] 88 % of control

O=C(O)/C=C/C(=O)Nc1ccc(C(=O)O)cc1
inactive: [9] 94 % of control | [7] 91 % of control | [10] 92 % of control | [8] 96 % of control | [11] 92 % of control | [12] 89 % of control

CCn1c(COc2ccc(Br)cc2)c(COC(=O)c2cccc(Cl)c2)c2ccccc21
inactive: [7] 94 % of control | [8] 92 % of control | [12] 94 % of control

CC1OC(n2cc(Cl)c(=O)[nH]c2=O)C2OC(C)(C)OC2C1=O (configuration not stated)
inactive: endpoint: median survival time, dose: 25.0 mg/kg/injection, schedule: Q01DX005 (ip), vehicle: Klucel (hydroxypropylcellulose) (HPC) 102 % of control | endpoint: median survival time, dose: 50.0 mg/kg/injection, schedule: Q01DX005 (ip), vehicle: Klucel (hydroxypropylcellulose) (HPC) 100 % of control | endpoint: median survival time, dose: 100.0 mg/kg/injection, schedule: Q01DX005 (ip), vehicle: Klucel (hydroxypropylcellulose) (HPC) 102 % of control | endpoint: median survival time, dose: 200.0 mg/kg/injection, schedule: Q01DX005 (ip), vehicle: Klucel (hydroxypropylcellulose) (HPC) 107 % of control

O=C(Nc1cc(Cl)c(I)c(Cl)c1)C(F)(F)F
inactive: [13] 98 % of control | [14] 101 % of control | [15] 98 % of control

S=C(CCc1ccc2c(c1)CCCC2)N1CCOCC1
inactive: [3] 98 % of control | [4] 98 % of control | [5] 97 % of control

O=C(/C=N/O)Nc1ccccc1
inactive: [3] 101 % of control | [4] 100 % of control | [5] 95 % of control

O=C(O)CCC(=O)c1ccccc1
inactive: [6] 101 % of control | [7] 106 % of control | [8] 106 % of control

C=CC(=O)NC(C)(C)CC(C)=O
inactive: [9] 98 % of control | [13] 103 % of control | endpoint: mean survival time, dose: 100.0 mg/kg/injection, schedule: Q01DX009 (ip), vehicle: saline 100 % of control | [10] 102 % of control | [14] 97 % of control | endpoint: mean survival time, dose: 200.0 mg/kg/injection, schedule: Q01DX009 (ip), vehicle: saline 100 % of control | [11] 102 % of control | [15] 102 % of control

ClC1CC[N-]CC1.ClC1CC[N-]CC1.[Cl][Pt+2]([Cl])([Cl])[Cl]
inactive: endpoint: mean survival time, dose: 12.5 mg/kg/injection, schedule: Q01DX009 (ip), vehicle: water 123 % of control | endpoint: mean survival time, dose: 25.0 mg/kg/injection, schedule: Q01DX009 (ip), vehicle: water 110 % of control

CC(=O)C(N=Nc1cccc2c1C(=O)c1ccccc1C2=O)C(=O)Nc1ccccc1C (configuration not stated)
inactive: endpoint: mean survival time, dose: 75.0 mg/kg/injection, schedule: Q01DX001 (ip), vehicle: saline 98 % of control | endpoint: mean survival time, dose: 150.0 mg/kg/injection, schedule: Q01DX001 (ip), vehicle: saline 93 % of control | endpoint: mean survival time, dose: 300.0 mg/kg/injection, schedule: Q01DX001 (ip), vehicle: saline 96 % of control

O=C(CCl)NCCCCNC(=O)CCl
inactive: [13] 101 % of control | [14] 98 % of control | [15] 100 % of control

Cc1nc(N)nc(N)n1
inactive: [3] 100 % of control | [4] 100 % of control | [5] 97 % of control

Oc1ccc2ccccc2c1/C=N/N=C/c1c(O)ccc2ccccc12
inactive: endpoint: mean survival time, dose: 12.5 mg/kg/injection, schedule: Q01DX009 (ip), vehicle: Klucel (hydroxypropylcellulose) (HPC) 100 % of control | endpoint: mean survival time, dose: 25.0 mg/kg/injection, schedule: Q01DX009 (ip), vehicle: Klucel (hydroxypropylcellulose) (HPC) 96 % of control | endpoint: mean survival time, dose: 50.0 mg/kg/injection, schedule: Q01DX009 (ip), vehicle: Klucel (hydroxypropylcellulose) (HPC) 104 % of control

COC(=O)c1cc(-c2ccccc2)n(-c2ccccc2)c1-c1ccccc1
inactive: endpoint: mean survival time, dose: 100.0 mg/kg/injection, schedule: Q01DX001 (ip), vehicle: Klucel (hydroxypropylcellulose) (HPC) 94 % of control | endpoint: mean survival time, dose: 100.0 mg/kg/injection, schedule: Q04DX002 (ip), vehicle: saline with Tween-80 90 % of control | endpoint: mean survival time, dose: 200.0 mg/kg/injection, schedule: Q01DX001 (ip), vehicle: Klucel (hydroxypropylcellulose) (HPC) 89 % of control | endpoint: mean survival time, dose: 200.0 mg/kg/injection, schedule: Q04DX002 (ip), vehicle: saline with Tween-80 87 % of control | endpoint: mean survival time, dose: 400.0 mg/kg/injection, schedule: Q01DX001 (ip), vehicle: Klucel (hydroxypropylcellulose) (HPC) 89 % of control | endpoint: mean survival time, dose: 400.0 mg/kg/injection, schedule: Q04DX002 (ip), vehicle: saline with Tween-80 94 % of control

CC(C)CCCC(C)C1CCC2C3CCC4CC(OCN5CCCCC5)CCC4(C)C3CCC12C (configuration not stated)
inactive: endpoint: mean survival time, dose: 100.0 mg/kg/injection, schedule: Q04DX003 (ip), vehicle: Klucel (hydroxypropylcellulose) (HPC) 95 % of control | endpoint: mean survival time, dose: 200.0 mg/kg/injection, schedule: Q04DX003 (ip), vehicle: Klucel (hydroxypropylcellulose) (HPC) 92 % of control | endpoint: mean survival time, dose: 400.0 mg/kg/injection, schedule: Q04DX003 (ip), vehicle: Klucel (hydroxypropylcellulose) (HPC) 92 % of control

COC(=O)N(C)c1nc(-c2ccccc2)nc2nonc12
inactive: endpoint: mean survival time, dose: 12.5 mg/kg/injection, schedule: Q01DX005 (ip), vehicle: saline with Tween-80 100 % of control | endpoint: mean survival time, dose: 25.0 mg/kg/injection, schedule: Q01DX005 (ip), vehicle: saline with Tween-80 96 % of control | endpoint: mean survival time, dose: 50.0 mg/kg/injection, schedule: Q01DX005 (ip), vehicle: saline with Tween-80 94 % of control | endpoint: mean survival time, dose: 100.0 mg/kg/injection, schedule: Q01DX005 (ip), vehicle: saline with Tween-80 90 % of control

CCCCCCCCCCCCCCC[N+]1(C)CCSCC1
inactive: endpoint: mean survival time, dose: 25.0 mg/kg/injection, schedule: Q01DX001 (ip), vehicle: saline with Tween-80 100 % of control | endpoint: mean survival time, dose: 50.0 mg/kg/injection, schedule: Q01DX001 (ip), vehicle: saline with Tween-80 95 % of control
